Reference: the NIST ThermoML archive (doi:10.1021/je200862b)
± gives the expanded uncertainty stated by the source.

Experiments:
[1] = xn = mol fraction of the nth substance listed; conditions: 101 kPa, Liquid; for viscosity: Capillary tube (Ostwald / Ubbelohde) method
[2] = 101 kPa, Liquid; for viscosity: Capillary tube (Ostwald / Ubbelohde) method; for mass density: Pycnometric method

CN(C)c1ccccc1 [N,N-dimethylaniline] + CCC(=O)O
viscosity ([1]; 303.15 K, x2 = 0): 1.174 ± 0.039 mPa·s
viscosity ([1]; 303.15 K, x2 = 0.102): 1.27 ± 0.039 mPa·s
viscosity ([1]; 303.15 K, x2 = 0.2054): 1.329 ± 0.039 mPa·s
viscosity ([1]; 303.15 K, x2 = 0.3071): 1.386 ± 0.039 mPa·s
viscosity ([1]; 303.15 K, x2 = 0.4092): 1.446 ± 0.039 mPa·s
viscosity ([1]; 303.15 K, x2 = 0.5107): 1.494 ± 0.039 mPa·s
viscosity ([1]; 303.15 K, x2 = 0.6178): 1.545 ± 0.04 mPa·s
viscosity ([1]; 303.15 K, x2 = 0.7083): 1.534 ± 0.039 mPa·s
viscosity ([1]; 303.15 K, x2 = 0.8023): 1.457 ± 0.039 mPa·s
viscosity ([1]; 303.15 K, x2 = 0.8987): 1.225 ± 0.039 mPa·s
mass density ([1]; 303.15 K, Pycnometric method, x2 = 0): 948.02 ± 2.1 kg/m3
mass density ([1]; 303.15 K, Pycnometric method, x2 = 0.102): 954.36 ± 2.1 kg/m3
mass density ([1]; 303.15 K, Pycnometric method, x2 = 0.2054): 959.8 ± 2.1 kg/m3
mass density ([1]; 303.15 K, Pycnometric method, x2 = 0.3071): 964.49 ± 2.1 kg/m3
mass density ([1]; 303.15 K, Pycnometric method, x2 = 0.4092): 969.31 ± 2.1 kg/m3
mass density ([1]; 303.15 K, Pycnometric method, x2 = 0.5107): 974.03 ± 2.1 kg/m3
mass density ([1]; 303.15 K, Pycnometric method, x2 = 0.6178): 978.56 ± 2.1 kg/m3
mass density ([1]; 303.15 K, Pycnometric method, x2 = 0.7083): 982.24 ± 2.1 kg/m3
mass density ([1]; 303.15 K, Pycnometric method, x2 = 0.8023): 985.32 ± 2.1 kg/m3
mass density ([1]; 303.15 K, Pycnometric method, x2 = 0.8987): 986.44 ± 2.1 kg/m3
viscosity ([1]; 313.15 K, x2 = 0): 0.9823 ± 0.04 mPa·s
viscosity ([1]; 313.15 K, x2 = 0.102): 1.019 ± 0.04 mPa·s
viscosity ([1]; 313.15 K, x2 = 0.2054): 1.058 ± 0.04 mPa·s
viscosity ([1]; 313.15 K, x2 = 0.3071): 1.093 ± 0.04 mPa·s
viscosity ([1]; 313.15 K, x2 = 0.4092): 1.124 ± 0.04 mPa·s
viscosity ([1]; 313.15 K, x2 = 0.5107): 1.149 ± 0.04 mPa·s
viscosity ([1]; 313.15 K, x2 = 0.6178): 1.151 ± 0.04 mPa·s
viscosity ([1]; 313.15 K, x2 = 0.7083): 1.119 ± 0.04 mPa·s
viscosity ([1]; 313.15 K, x2 = 0.8023): 1.06 ± 0.04 mPa·s
viscosity ([1]; 313.15 K, x2 = 0.8987): 0.9646 ± 0.04 mPa·s
mass density ([1]; 313.15 K, Pycnometric method, x2 = 0): 938.5 ± 2.4 kg/m3
mass density ([1]; 313.15 K, Pycnometric method, x2 = 0.102): 943.74 ± 2.4 kg/m3
mass density ([1]; 313.15 K, Pycnometric method, x2 = 0.2054): 949.09 ± 2.4 kg/m3
mass density ([1]; 313.15 K, Pycnometric method, x2 = 0.3071): 954.21 ± 2.4 kg/m3
mass density ([1]; 313.15 K, Pycnometric method, x2 = 0.4092): 959.17 ± 2.4 kg/m3
mass density ([1]; 313.15 K, Pycnometric method, x2 = 0.5107): 963.99 ± 2.4 kg/m3
mass density ([1]; 313.15 K, Pycnometric method, x2 = 0.6178): 968.62 ± 2.4 kg/m3
mass density ([1]; 313.15 K, Pycnometric method, x2 = 0.7083): 972.2 ± 2.4 kg/m3
mass density ([1]; 313.15 K, Pycnometric method, x2 = 0.8023): 975.35 ± 2.4 kg/m3
mass density ([1]; 313.15 K, Pycnometric method, x2 = 0.8987): 975.69 ± 2.4 kg/m3
viscosity ([1]; 323.15 K, x2 = 0): 0.8259 ± 0.036 mPa·s
viscosity ([1]; 323.15 K, x2 = 0.102): 0.8432 ± 0.036 mPa·s
viscosity ([1]; 323.15 K, x2 = 0.2054): 0.8693 ± 0.036 mPa·s
viscosity ([1]; 323.15 K, x2 = 0.3071): 0.8949 ± 0.036 mPa·s
viscosity ([1]; 323.15 K, x2 = 0.4092): 0.9196 ± 0.036 mPa·s
viscosity ([1]; 323.15 K, x2 = 0.5107): 0.9397 ± 0.036 mPa·s
viscosity ([1]; 323.15 K, x2 = 0.6178): 0.9442 ± 0.036 mPa·s
viscosity ([1]; 323.15 K, x2 = 0.7083): 0.9121 ± 0.036 mPa·s
viscosity ([1]; 323.15 K, x2 = 0.8023): 0.864 ± 0.036 mPa·s
viscosity ([1]; 323.15 K, x2 = 0.8987): 0.7783 ± 0.036 mPa·s
mass density ([1]; 323.15 K, Pycnometric method, x2 = 0): 930.72 ± 2 kg/m3
mass density ([1]; 323.15 K, Pycnometric method, x2 = 0.102): 934.82 ± 2 kg/m3
mass density ([1]; 323.15 K, Pycnometric method, x2 = 0.2054): 939.72 ± 2 kg/m3
mass density ([1]; 323.15 K, Pycnometric method, x2 = 0.3071): 944.52 ± 2 kg/m3
mass density ([1]; 323.15 K, Pycnometric method, x2 = 0.5107): 953.51 ± 2 kg/m3
mass density ([1]; 323.15 K, Pycnometric method, x2 = 0.6178): 958 ± 2 kg/m3
mass density ([1]; 323.15 K, Pycnometric method, x2 = 0.7083): 961.05 ± 2 kg/m3
mass density ([1]; 323.15 K, Pycnometric method, x2 = 0.8023): 963.47 ± 2 kg/m3
mass density ([1]; 323.15 K, Pycnometric method, x2 = 0.8987): 963.54 ± 2 kg/m3

CCC(=O)O [propanoic acid]
viscosity ([2]; 303.15 K): 0.9496 ± 0.038 mPa·s
mass density ([2]; 303.15 K): 982.09 ± 2.1 kg/m3
viscosity ([2]; 313.15 K): 0.8476 ± 0.04 mPa·s
mass density ([2]; 313.15 K): 973.4 ± 2.4 kg/m3
viscosity ([2]; 323.15 K): 0.7062 ± 0.035 mPa·s
mass density ([2]; 323.15 K): 961.39 ± 2 kg/m3

CCC(=O)O [propanoic acid] + CCN(CC)c1ccccc1
viscosity ([1]; 303.15 K, x1 = 1): 0.9496 ± 0.31 mPa·s
mass density ([1]; 303.15 K, Vibrating tube method, x1 = 1): 982.09 ± 2.7 kg/m3
viscosity ([1]; 313.15 K, x1 = 1): 0.8476 ± 0.2 mPa·s
mass density ([1]; 313.15 K, Vibrating tube method, x1 = 1): 973.4 ± 3 kg/m3
viscosity ([1]; 323.15 K, x1 = 1): 0.7062 ± 0.13 mPa·s
mass density ([1]; 323.15 K, Vibrating tube method, x1 = 1): 961.39 ± 2.4 kg/m3

CCC(=O)O [propanoic acid] + CN(C)c1ccccc1
viscosity ([1]; 303.15 K, x1 = 1): 0.9496 ± 0.038 mPa·s
mass density ([1]; 303.15 K, Pycnometric method, x1 = 1): 982.09 ± 2.1 kg/m3
viscosity ([1]; 313.15 K, x1 = 1): 0.8476 ± 0.04 mPa·s
mass density ([1]; 313.15 K, Pycnometric method, x1 = 1): 973.4 ± 2.4 kg/m3
viscosity ([1]; 323.15 K, x1 = 1): 0.7062 ± 0.035 mPa·s
mass density ([1]; 323.15 K, Pycnometric method, x1 = 1): 961.39 ± 2 kg/m3
